Reference: patent US12350290B2, “Compositions and methods that promote hypoxia or the hypoxia response for treatment and prevention of mitochondrial dysfunction and oxidative stress disorders” (The General Hospital Corporation, priority 2015, dated 2025)

Key:
[1] = tested on: HT-29s, HEK 293s and K562s; assay: Rescue of growth defect caused by respiratory chain inhibition; format: cell-based
Source text: After VHL was confirmed as an effective therapeutic target for mitochondrial disease, clinically-relevant options for triggering the hypoxia response were studied. While a VHL-inhibitor has been reported (Buckley et al., J. Am. Chem. Soc. 134:4465-68 (2012)), it is not cell permeable. However, PHD inhibitors have been extensively developed for the treatment of anemia of chronic kidney disease and ischemic injury (Rabinowitz, J. Med. Chem. 56:9369-9402 (2013)). The small molecule PHD inhibitor, FG-4592, also known as roxadustat, is currently in Phase III clinical trials for chronic kidney disease. […] FG-4592 treatment may mimic VHL-knockout, thus triggering a broader hypoxia transcriptional program. Compounds that trigger the hypoxia response including VHL-inhibitors and PHD inhibitors are therapeutics for mitochondrial dysfunction. Pre-treatment and incubation with FG-4592 almost completely rescued the growth defects caused by deficiency of multiple respiratory complexes, in multiple cell lines (FIGS. 12-13). […] Complex I, III or V inhibition stunts cell growth in most cell lines, including HT-29s, HEK 293s and […]. […] The nearly full rescue of the disease state across different cell lines and across chemical lesions highlights the general utility of this approach.

HIF1α = HIF1α stabilization in cell culture; format: cell-based; details: for effect of respiratory chain inhibition on HIF1α stabilization: hypoxia, respiratory chain inhibitor alone
Source text: It has previously been noted that a paradox exists between mitochondrial dysfunction and cellular sensing of hypoxia (Chandel et al., Proc. Natl. Acad. Sci. U.S.A. 95:11715-20 (1998)). In cell culture, inhibition of the respiratory chain prevents HIF stabilization, even under low oxygen conditions that would otherwise trigger the hypoxia response. Proposed explanations include higher cellular oxygen tensions and […] ROS production during states of mitochondrial dysfunction. While this phenomenon has been noted in the hypoxia field, it has received less attention in the context of mitochondrial disease pathogenesis. If such a paradox extends to mitochondrial disease patients, such individuals may be unable to stabilize HIF in physiological conditions of hypoxia.

[2] = tested on: HIF-responsive genes (HK2, GLUT1, LDHA, PDK1); assay: Transcription of energy metabolism genes (hypoxia transcriptional program); format: cell-based
Source text: The HIF transcriptional response is believed to be protective during states of hypoxia, at least in part by causing a rewiring of energy metabolism. By shifting from aerobic respiration to anaerobic glycolysis, the HIF1α response can maintain the energy supply at low oxygen tensions. FG-4592 caused normoxic stabilization of HIF proteins. […] Glucose import and phosphorylation are rate-limiting steps in the glycolytic flux of many tissues. […] HIF1α activation is also known to shunt the carbon supply away from the TCA cycle and towards the LDH reaction. Several mechanisms have been proposed for this shift away from aerobic respiration, including pyruvate dehydrogenase phosphorylation. […] Thus, cells were unable to mount the appropriate transcriptional response by endogenous mechanisms.

HT-29 cells = assay: Anaerobic glycolysis measured as lactic acid; format: cell-based; details: basal conditions and with respiratory chain inhibition
Source text: (§1) The shift in energy metabolism was confirmed by measuring lactic acid as the end-product of anaerobic glycolysis and oxygen consumption as a proxy for aerobic respiration. […] Thus cells are able to shift towards glycolysis using endogenous defense mechanisms; however, a transcriptional response is needed to increase the glycolytic flux enough to maintain cellular growth rates. Furthermore, basal oxygen consumption was decreased with FG-4592 treatment. This may be protective in the setting of mitochondrial dysfunction, as it may limit the amount of ROS produced by impaired electron transport. Genetic and small molecule activation of the HIF pathway enabled cells to cope with mitochondrial dysfunction at multiple steps of the electron transport chain and in multiple cell types. The small molecule, FG-4592, normoxically stabilized HIF and thereby increased glycolysis beyond allosteric mechanisms. Furthermore, it bypassed the paradox between mitochondrial dysfunction and HIF stabilization during hypoxia.

multiple cell types = assay: Oxygen consumption as proxy for aerobic respiration; format: cell-based; details: FG-4592 treatment
Source text: as §1

[3] = tested on: hypoxia response elements (HREs) fused to GFP; assay: Zebrafish hypoxia reporter strain (HRE-GFP) fluorescence; format: in vivo; details: 6 hours of exposure to 2.5 μM FG-4592
Source text: A zebrafish reporter strain was used to monitor activation of the hypoxia transcriptional response (Santhakumar et al., Cancer Res. 72, 4017-27 (2012)). The reporter fish has a promoter containing hypoxia response elements (HREs) fused to GFP. Hypoxia exposure or VHL knockdown causes an increase in GFP expression, allowing for in vivo monitoring of the hypoxia response. This model system could be used to monitor drug-target engagement and pharmacodynamics of a HIF activator (Chowdhury et al., ACS Chem Biol. 8:1488-96 (2013)).
Antimycin inhibits oxygen consumption of zebrafish embryos (Stackley, et al., PLOS One. 6, e25652 (2011)).

zebrafish embryos = assay: Zebrafish embryo survival with Antimycin
K562 cells = assay: Mitochondrial disease model: K562 cell growth with Antimycin; format: cell-based; details: three weeks
Method: Mitochondrial disease was modeled in the suspension cell line, K562, and a CRISPR screen was performed to identify potential drug targets. The natural product, Antimycin, was used as a complex III inhibitor of the respiratory chain. In the presence of Antimycin, the respiratory chain is unable to oxidize high energy reducing equivalents to power ATP production. However, redox recycling by the cytoplasmic lactate dehydrogenase reaction, allows other NAD+ dependent reactions to proceed. […] Mitochondrial disease was modeled with the addition of Antimycin alone (moderate disease) or Antimycin in combination with removal of pyruvate (severe disease), using cell growth as a proxy for disease magnitude (FIG. 3). K562 cells were infected with a ˜65,000 sgRNA library, targeting ˜18,000 genes (Shalem et al., Science, 343:84-88 (2014)). After one week of genome editing, the pool of knockout cells were divided into experimental conditions of untreated, moderate disease and severe disease states (FIG. 4). Samples for an enrichment screen were collected by allowing the knockout pool to grow in selection conditions for three weeks. The relative growth between untreated and moderate disease conditions was 100-fold and between untreated and severe disease conditions was 10,000-fold (FIG. 5). […]

Molecule | rescue of growth under ATP synthase inhibition ([1]; ATP synthase inhibition) | normal growth rates ([1]; no respiratory chain inhibition) | rescue of growth defect from Complex I, III or V inhibition ([1]; ~50 uM FG-4592 in advance and during respiratory chain dysfunction, dose-dependent) | HIF1α stabilization (HIF1α; hypoxic conditions) | HIF1α stabilization during respiratory chain inhibition (HIF1α; mitochondrial dysfunction, normoxia or hypoxia) | HIF1α stabilization (HIF1α; normoxic conditions) | transcription of glucose transporter 1 (GLUT1) ([2]; FG-4592 for 24 h) | transcription of hexokinase 2 (HK2) ([2]; FG-4592 for 24 h) | transcription of lactate dehydrogenase (LDHA) ([2]; FG-4592 treatment) | transcription of pyruvate dehydrogenase kinase (PDK1) ([2]; after FG-4592 treatment) | hypoxia transcriptional program ([2]; during respiratory chain inhibition) | increase of glycolysis (HT-29 cells) [%] | basal oxygen consumption (multiple cell types) | fluorescence of reporter fish [3] | survival of zebrafish embryos (zebrafish embryos; intermediate concentrations of Antimycin) | effect of respiratory chain inhibition on HIF1α stabilization (HIF1α) | relative growth between untreated and moderate disease conditions (K562 cells; moderate disease: 100 nM Antimycin with 1 mM pyruvate) [fold] | relative growth between untreated and severe disease conditions (K562 cells; severe disease: 100 nM Antimycin without pyruvate) | toxicity to zebrafish embryos (zebrafish embryos; prolonged treatment at low nanomolar concentrations)
Cc1nc(C(=O)NCC(=O)O)c(O)c2ccc(Oc3ccccc3)cc12 [FG-4592, N-[(4-hydroxy-1-methyl-7-phenoxy-3-isoquinolinyl)carbonyl]glycine] | significantly rescued | minimally increased | nearly or completely rescued this growth defect | stabilized HIF1α beyond the endogenous hypoxia response of untreated cells | enabled HIF1α stabilization in the face of mitochondrial dysfunction | stabilized the transcription factor even during normoxia | upregulated in multiple cell types | upregulated in multiple cell types | similarly upregulated | significant upregulation | triggered the hypoxia transcriptional program, even during respiratory chain inhibition | ~60 | decreased | robust increase in fluorescence | nearly doubled survival | – | – | – | –
CC[C@H]1/C=C/C=C/C[C@@H](C)[C@H](O)[C@@](C)(O)C(=O)[C@@H](C)[C@H](O)[C@@H](C)C(=O)[C@@H](C)[C@H](O)[C@@H](C)/C=C/C(=O)O[C@@H]2[C@H](C)[C@H](CC1)O[C@]1(CC[C@H](C)[C@H](C[C@@H](C)O)O1)[C@H]2C [Oligomycin] | – | – | – | – | – | – | – | – | – | – | – | – | – | – | – | prevented HIF1α stabilization during hypoxia | – | – | –
Antimycin | – | – | – | – | – | – | – | – | – | – | – | – | – | – | – | prevented HIF1α stabilization during hypoxia | 100 | 10,000 fold | resulted in death of embryos
